Read-outs that look alike come from different tables or passages of the source.
Tested on: LPS-induced PGE2 release
Experiment: Ex vivo LPS-induced PGE2 release in whole blood, multiple oral doses for 28 days (Example 2, Part 1)
Set-up: species or system human
Settings: for EAUC0-24 h, Difference in LS means (Compound I − placebo) / EAUC0-24 h, LS means / ETmax (time to reach maximum effect), Median / ETmax, median difference from placebo / Eavg0-24 h, Difference in LS means (Compound I − placebo) / Epeak, Difference in LS means (Compound I − placebo) / Emax at 25 mg / Emax at 75 mg / Emax at 130 mg / inhibition at 25 mg / inhibition at 75 mg / inhibition at 130 mg: healthy subjects; for Emax at 25 mg / Emax at 75 mg / Emax at 130 mg / inhibition at 25 mg / inhibition at 75 mg / inhibition at 130 mg: Homo sapiens, po; for Emax at 25 mg / Emax at 75 mg / Emax at 130 mg: read-out: Epeak (maximum effect), LS means; for inhibition at 25 mg / inhibition at 75 mg / inhibition at 130 mg: read-out: Eavg0-24 h (average PGE2 inhibition over 24 hours), LS means
Procedure: Part 1 consisted of a MAD, double-blind, sequential-group study in healthy subjects. Twenty-four adult male and female subjects were recruited into 3 cohorts. Subjects were enrolled in a sequential manner in cohorts of 8, each randomized in a ratio of 6:2, to receive Compound I or placebo, respectively, for a duration of 28 days. Three dose levels of Compound I (25, 75 and 130 mg) were studied in Cohorts A, B and C, respectively. For each cohort in Part 1, the planned Compound I, qd dosing occurred in the fasted state in the morning on Days 1 to 28, both inclusive. Subjects in each cohort started dosing on the same day, with no less than 5 minutes dose interval between subjects on Day 1.
Concentrations below the limit of quantification were treated as ½ the lower limit of quantification for subsequent calculations.
Time points where unstimulated PGE2 levels were 3 times greater than the mean of unstimulated PGE2 and greater than or equal to half of the baseline for a particular subject were not included in the calculation of these parameters.
Baseline is the mean of Day −1 and pre-dose LPS stimulated PGE2.
Abbreviations: CI=confidence interval; EAUC0-24h=area under the effect-time curve from time zero to 24 hours postdose; Eavg0-24h=the average PGE2 inhibition over 24 hours; Epeak=maximum effect; ETmax=time to reach maximum effect; LS=least squares; N=number of subjects; PGE2=prostaglandin E2; qd=once daily.
^a Median, median difference from placebo and approximate 95% CI.

CC(C)(C)C(=O)NCc1ccc(Cl)c(-c2nn(-c3ccc(C(F)(F)F)cc3)c(=O)[nH]2)c1 [Compound I, N-(4-chloro-3-(5-oxo-1-(4-(trifluoromethyl)phenyl)-4,5-dihydro-1H-1,2,4-triazol-3-yl)benzyl)pivalamide]
EAUC0-24 h, Difference in LS means (Compound I − placebo) (Day 1, 25 mg qd): 1225 % · h | EAUC0-24 h, LS means (Day 1, 25 mg qd): 1562 % · h | ETmax (time to reach maximum effect), Median (Day 1, 25 mg qd): 6.00 h | ETmax, median difference from placebo (Day 1, 25 mg qd): -6.00 h | Eavg0-24 h, Difference in LS means (Compound I − placebo) (Day 1, 25 mg qd): 51.6% | Epeak, Difference in LS means (Compound I − placebo) (Day 1, 25 mg qd): 35.0% | EAUC0-24 h, Difference in LS means (Compound I − placebo) (Day 1, 75 mg qd): 1218 % · h | EAUC0-24 h, LS means (Day 1, 75 mg qd): 1555 % · h | ETmax (time to reach maximum effect), Median (Day 1, 75 mg qd): 23.8 h | ETmax, median difference from placebo (Day 1, 75 mg qd): 5.77 h | Eavg0-24 h, Difference in LS means (Compound I − placebo) (Day 1, 75 mg qd): 51.2% | Epeak, Difference in LS means (Compound I − placebo) (Day 1, 75 mg qd): 26.7% | EAUC0-24 h, Difference in LS means (Compound I − placebo) (Day 1, 130 mg qd): 1032 % · h | EAUC0-24 h, LS means (Day 1, 130 mg qd): 1369 % · h | ETmax (time to reach maximum effect), Median (Day 1, 130 mg qd): 4.00 h | ETmax, median difference from placebo (Day 1, 130 mg qd): -10.0 h | Eavg0-24 h, Difference in LS means (Compound I − placebo) (Day 1, 130 mg qd): 43.5% | Epeak, Difference in LS means (Compound I − placebo) (Day 1, 130 mg qd): 22.3% | EAUC0-24 h, Difference in LS means (Compound I − placebo) (Day 10, 25 mg qd): 1461 % · h | EAUC0-24 h, LS means (Day 10, 25 mg qd): 1443 % · h | ETmax (time to reach maximum effect), Median (Day 10, 25 mg qd): 5.00 h | ETmax, median difference from placebo (Day 10, 25 mg qd): -7.00 h | Eavg0-24 h, Difference in LS means (Compound I − placebo) (Day 10, 25 mg qd): 61.3% | Epeak, Difference in LS means (Compound I − placebo) (Day 10, 25 mg qd): 45.0% | EAUC0-24 h, Difference in LS means (Compound I − placebo) (Day 10, 75 mg qd): 1560 % · h | EAUC0-24 h, LS means (Day 10, 75 mg qd): 1542 % · h | ETmax (time to reach maximum effect), Median (Day 10, 75 mg qd): 12.0 h | ETmax, median difference from placebo (Day 10, 75 mg qd): -0.0333 h | Eavg0-24 h, Difference in LS means (Compound I − placebo) (Day 10, 75 mg qd): 65.4% | Epeak, Difference in LS means (Compound I − placebo) (Day 10, 75 mg qd): 42.7% | EAUC0-24 h, Difference in LS means (Compound I − placebo) (Day 10, 130 mg qd): 1392 % · h | EAUC0-24 h, LS means (Day 10, 130 mg qd): 1374 % · h | ETmax (time to reach maximum effect), Median (Day 10, 130 mg qd): 4.00 h | ETmax, median difference from placebo (Day 10, 130 mg qd): -6.03 h | Eavg0-24 h, Difference in LS means (Compound I − placebo) (Day 10, 130 mg qd): 58.4% | Epeak, Difference in LS means (Compound I − placebo) (Day 10, 130 mg qd): 40.9% | EAUC0-24 h, Difference in LS means (Compound I − placebo) (Day 28, 25 mg qd): 1281 % · h | EAUC0-24 h, LS means (Day 28, 25 mg qd): 1621 % · h | ETmax (time to reach maximum effect), Median (Day 28, 25 mg qd): 2.00 h | ETmax, median difference from placebo (Day 28, 25 mg qd): -6.00 h | Eavg0-24 h, Difference in LS means (Compound I − placebo) (Day 28, 25 mg qd): 53.4% | Epeak, Difference in LS means (Compound I − placebo) (Day 28, 25 mg qd): 18.0% | EAUC0-24 h, Difference in LS means (Compound I − placebo) (Day 28, 75 mg qd): 1356 % · h | EAUC0-24 h, LS means (Day 28, 75 mg qd): 1696 % · h | ETmax (time to reach maximum effect), Median (Day 28, 75 mg qd): 10.0 h | ETmax, median difference from placebo (Day 28, 75 mg qd): 0.0333 h | Eavg0-24 h, Difference in LS means (Compound I − placebo) (Day 28, 75 mg qd): 56.4% | Epeak, Difference in LS means (Compound I − placebo) (Day 28, 75 mg qd): 21.2% | EAUC0-24 h, Difference in LS means (Compound I − placebo) (Day 28, 130 mg qd): 1192 % · h | EAUC0-24 h, LS means (Day 28, 130 mg qd): 1531 % · h | ETmax (time to reach maximum effect), Median (Day 28, 130 mg qd): 12.0 h | ETmax, median difference from placebo (Day 28, 130 mg qd): 0.177 h | Eavg0-24 h, Difference in LS means (Compound I − placebo) (Day 28, 130 mg qd): 49.6% | Epeak, Difference in LS means (Compound I − placebo) (Day 28, 130 mg qd): 13.9% | Emax at 25 mg (24 h, Day 1, 25 mg qd): 90.4% | Emax at 75 mg (24 h, Day 1, 75 mg qd): 82.1% | Emax at 130 mg (24 h, Day 1, 130 mg qd): 77.8% | Emax at 25 mg (240 h, Day 10, 25 mg qd): 83.7% | Emax at 75 mg (240 h, Day 10, 75 mg qd): 81.4% | Emax at 130 mg (240 h, Day 10, 130 mg qd): 79.6% | Emax at 25 mg (672 h, Day 28, 25 mg qd): 84.2% | Emax at 75 mg (672 h, Day 28, 75 mg qd): 87.4% | Emax at 130 mg (672 h, Day 28, 130 mg qd): 80.1% | inhibition at 25 mg (Day 1, 25 mg qd): 65.7% | inhibition at 75 mg (Day 1, 75 mg qd): 65.4% | inhibition at 130 mg (Day 1, 130 mg qd): 57.6% | inhibition at 25 mg (Day 10, 25 mg qd): 60.6% | inhibition at 75 mg (Day 10, 75 mg qd): 64.7% | inhibition at 130 mg (Day 10, 130 mg qd): 57.6% | inhibition at 25 mg (Day 28, 25 mg qd): 67.5% | inhibition at 75 mg (Day 28, 75 mg qd): 70.6% | inhibition at 130 mg (Day 28, 130 mg qd): 63.8% | inhibition of ex-vivo LPS-induced PGE2 release (in words) (multiple oral doses 25 mg to 130 mg qd, Days 1, 10 and 28): marked drug-related inhibition | time by which maximal inhibition was reached (post-dose on Day 1, each dose level (first sampling occasion)): ≤ 30 min

Source: patent US10758517B2, “mPGES-1 inhibitor for the treatment of osteoarthritis pain” (Glenmark Pharmaceuticals S.A., priority 2017, dated 2020)
